What was measured:
[1] = molecular target: T1, human 5-HT2C receptor (Homo sapiens, UniProt P28335); assay: cell-based; settings: Ca2+ flux, agonist mode
T1 sequence (P28335 33-458): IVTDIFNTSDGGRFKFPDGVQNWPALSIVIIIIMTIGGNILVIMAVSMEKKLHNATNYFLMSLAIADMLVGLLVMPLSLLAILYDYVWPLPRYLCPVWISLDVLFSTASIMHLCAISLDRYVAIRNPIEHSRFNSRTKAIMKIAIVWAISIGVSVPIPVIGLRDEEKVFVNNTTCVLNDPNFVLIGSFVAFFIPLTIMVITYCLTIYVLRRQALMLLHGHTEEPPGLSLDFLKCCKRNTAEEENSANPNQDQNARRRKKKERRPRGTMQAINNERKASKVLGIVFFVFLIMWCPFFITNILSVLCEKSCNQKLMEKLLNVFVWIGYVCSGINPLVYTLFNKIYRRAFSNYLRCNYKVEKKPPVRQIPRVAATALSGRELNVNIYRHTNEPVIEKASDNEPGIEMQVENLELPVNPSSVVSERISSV

[2] = Stability in rat brain homogenate
[3] = system: Sprague Dawley rats; assay: Forced swim test (FST) in rats; type: in vivo, rat; settings: SC
Protocol: These effects on swimming were stronger than those induced by the control antidepressant desipramine.
Animals. Male Sprague Dawley rats, aged 8-10 weeks, were used in the experiments. Animals were housed in groups of 2 under controlled temperature (22±3° C.) and relative humidity (30-70%) conditions, with 12-hour light/dark cycles, and with ad libitum food and water. These studies were carried out in strict accordance with the requirements of the Committee for the Purpose of Control and Supervision of Experiments on Animals (CPCSEA), India. All efforts were made to minimize suffering.
Drugs and Drug Administration. Compound 2 was prepared as described above. All other compounds were commercially obtained. Test compounds, saline vehicle, and the positive control desipramine were administered subcutaneously (SC), with doses calculated based on the free base. […] All compounds were administered at a volume of 5 mL/kg. Test compounds and vehicle were administered 0.5 h after the start of the training swim (Swim 1) and 23.5 h before the test swim (Swim 2). Desipramine was administered 3 times, at 23.5 h, 5 h, and 1 h before the test swim (Swim 2), each time at a dose of 20 mg/kg.
Forced Swim Test (FST). […] Group size was N=10 per treatment, except for the vehicle and desipramine groups, which were N=20. Rats were handled for about 2 min daily for the 5 days prior to the beginning of the experimental procedure. On the first day of the experiment (i.e., Day 0), post randomization, training swim sessions (Swim 1) were conducted between 12:00 and 18:00 h with all animals by placing rats in individual glass cylinders (46 cm tall×20 cm in diameter) containing 23-25° C. water 30 cm deep for 15 minutes. At the conclusion of Swim 1, animals were dried with paper towels, placed in heated drying cages for 15 minutes, and then returned to their home cages. […]
Behavioral scoring was conducted by observers who were blind to the treatment groups. Animals were continuously observed during Swim 2 and the total time spent engaging in the following behaviors was recorded: immobile, swimming, and climbing. […]

[4] = molecular target: T2, 5-HT2B receptor (Homo sapiens, UniProt P41595); assay: FLIPR Ca2+ flux agonist assay at 5-HT2B (HEK293); type: cell-based
T2 construct: host or cells: HEK293
Protocol: A solution of 250 mM probenecid in 1 mL FLIPR assay buffer was prepared fresh. This was combined with a fluorescent dye (Fluo-4 Direct™) to make a final assay concentration of 2.5 mM. […] The fluorescent dye was then added to the assay plate along with assay buffer to a final volume of 40 μL. The cell plate was incubated for 50 min at 37° C. and 5% CO2 and placed into the FLIPR Tetra along with the compound plate. 10 μL of references and compounds were then transferred from the compound plate into the cell plate and the fluorescent signal was read.

[5] = Chemical stability of the product on storage and analysis; type: physicochemical
Protocol: Note: The product 2 is unstable and should be stored frozen, protected from light, and under inert gas. If stored properly, stability has been confirmed by qNMR for at least 1 month.
A mixture of 3-(2-(azetidin-1-yl)ethyl)-1H-indol-4-ol (2, 50 mg, 231.18 μmol, 1 eq) and pyridine (23.77 mg, 300.54 μmol, 24.26 μL, 1.3 eq) in DCM (1 mL) was cooled to 0° C. Then acetic anhydride (25.96 mg, 254.30 μmol, 23.82 μL, 1.1 eq) was added dropwise at 0° C. and the resulting mixture was stirred at 25° C. for 1 h. At this time, the solvent was removed and the residue was purified by prep-HPLC (column=Waters Xbridge BEH C18 (100*30 mm, 10 μm); mobile phase=water(NH4HCO3)-ACN, B %=5%-40%; 10 min run time) to provide 3-(2-(azetidin-1-yl)ethyl)-1H-indol-4-yl acetate (4) as a white solid (20 mg, 33% yield). ^1H NMR (400 MHz, DMSO-d6) δ 11.01 (br s, 1H), 7.22 (d, J=8.0 Hz, 1H), 7.11 (d, J=1.6 Hz, 1H), 7.02 (t, J=8.0 Hz, 1H), 6.64 (d, J=7.6 Hz, 1H), 3.09 (t, J=6.8 Hz, 4H), 2.57-2.54 (m, 4H), 2.32 (s, 3H), 1.96-1.90 (m, 2H); LCMS (RT=0.983 min, MS calc.: 258.14, [M+H]+=259.1).

[6] = single dose 23.5 h before test swim, vs vehicle

T2 sequence (P41595 whole entry): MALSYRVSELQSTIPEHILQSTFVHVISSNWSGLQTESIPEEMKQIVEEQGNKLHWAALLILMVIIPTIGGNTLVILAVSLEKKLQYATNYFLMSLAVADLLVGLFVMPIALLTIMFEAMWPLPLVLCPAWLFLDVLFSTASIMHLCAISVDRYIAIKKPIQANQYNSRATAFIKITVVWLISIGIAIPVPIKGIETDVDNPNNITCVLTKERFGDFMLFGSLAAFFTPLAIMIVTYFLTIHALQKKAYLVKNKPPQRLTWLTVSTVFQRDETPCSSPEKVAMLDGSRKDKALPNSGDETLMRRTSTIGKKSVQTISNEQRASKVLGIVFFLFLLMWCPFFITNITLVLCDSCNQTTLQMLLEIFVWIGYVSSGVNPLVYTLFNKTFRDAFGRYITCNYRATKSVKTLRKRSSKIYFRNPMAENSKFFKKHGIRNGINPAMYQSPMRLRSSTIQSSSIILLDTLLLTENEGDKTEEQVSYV

Oc1cccc2[nH]cc(CCN3CCC3)c12 [Compound 2, 3-(2-(azetidin-1-yl)ethyl)-1H-indol-4-ol]
5-HT2C % Act @ Max Dose [1]: 48.4%
EC50 [1]: 279 nM
stability in rat brain homogenate (in words) [2]: good stability
half-life at 1 μM ([2]; male, Sprague Dawley, rat, rat brain homogenate): 2.91 h
% Compound Remaining (after 120 min) ([2]; rat brain homogenate (male Sprague Dawley), 1 μM, 37° C., 120 min): 56.8%
dose with significant effect on immobility in the FST ([3]; 23.5 h pre-treatment, lowest dose tested): ≤ 0.1 mg/kg
immobility time in the FST [3, 6]: reduced immobility time
swimming time in the FST [3, 6]: significant increases in swimming
EC50 [4]: > 10000 nM
5-HT2B % Act @ Max Dose ([4]; Ca2+ flux, agonist mode, HEK293): 3.83%
stability of the product (in words) ([5]; storage): unstable
time for which stability was confirmed by qNMR ([5]; stored frozen, protected from light, under inert gas): at least 1 month
